# Publication PMC11436701 (Scientific Reports, 2024)
# Target: AChE (Electrophorus electricus, 220 U·mg^-1) (Electrophorus electricus, UniProt O42275)
# Test: modified Ellman assay, […] nm
# Type: biochemical
# AChE (Electrophorus electricus, 220 U·mg^-1), sequence (O42275 24-633): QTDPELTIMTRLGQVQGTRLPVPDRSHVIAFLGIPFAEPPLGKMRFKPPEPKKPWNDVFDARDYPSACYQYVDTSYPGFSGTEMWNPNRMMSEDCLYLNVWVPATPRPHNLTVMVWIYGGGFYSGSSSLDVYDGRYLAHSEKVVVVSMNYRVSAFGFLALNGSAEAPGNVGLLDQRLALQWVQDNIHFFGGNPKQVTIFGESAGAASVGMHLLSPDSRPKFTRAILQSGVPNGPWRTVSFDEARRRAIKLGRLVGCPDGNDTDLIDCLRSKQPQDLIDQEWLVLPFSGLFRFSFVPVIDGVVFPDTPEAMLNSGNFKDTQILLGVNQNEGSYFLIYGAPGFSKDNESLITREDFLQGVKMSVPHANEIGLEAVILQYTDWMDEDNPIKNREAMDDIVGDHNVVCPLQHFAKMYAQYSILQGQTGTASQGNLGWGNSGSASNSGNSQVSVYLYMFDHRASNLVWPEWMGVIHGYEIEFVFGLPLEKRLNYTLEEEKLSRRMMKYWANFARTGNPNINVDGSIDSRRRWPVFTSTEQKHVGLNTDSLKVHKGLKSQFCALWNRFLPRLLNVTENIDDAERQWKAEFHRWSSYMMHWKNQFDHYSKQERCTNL
row,SMILES,IC50 [µM]
1,"CCOP(=S)(OCC)Oc1nc(Cl)c(Cl)cc1Cl [CPF, chlorpyrifos]",73
2,"COP(=O)(OC)OC=C(Cl)Cl [DDVP, dichlorvos]",1.25
